According to the NIST ThermoML archive (doi:10.1021/je1008747):

Conditions: Liquid

CCCCn1cc[n+](C)c1.[Cl-] [1-butyl-3-methylimidazolium chloride]
Conditions	mass density [kg/m3]
348.15 K, 101.33 kPa	1055.7
352.1 K, 100 kPa	1054
352.1 K, 10000 kPa	1058
352.1 K, 20000 kPa	1062
352.1 K, 30000 kPa	1067
352.1 K, 40000 kPa	1071
352.1 K, 50000 kPa	1074
352.1 K, 60000 kPa	1078
352.1 K, 70000 kPa	1082
352.1 K, 80000 kPa	1085
352.1 K, 90000 kPa	1089
352.1 K, 100000 kPa	1093
352.1 K, 110000 kPa	1096
352.1 K, 120000 kPa	1099
352.1 K, 130000 kPa	1102
352.1 K, 140000 kPa	1106
352.1 K, 150000 kPa	1109
352.1 K, 160000 kPa	1112
352.1 K, 170000 kPa	1115
352.1 K, 180000 kPa	1118
352.1 K, 190000 kPa	1121
352.1 K, 200000 kPa	1124
353.15 K, 101.33 kPa	1053
358.15 K, 101.33 kPa	1050.4
363.15 K, 101.33 kPa	1047.7
368.15 K, 101.33 kPa	1045.1
372.4 K, 10000 kPa	1046
372.4 K, 20000 kPa	1050
372.4 K, 30000 kPa	1055
372.4 K, 40000 kPa	1059
372.4 K, 50000 kPa	1063
372.4 K, 60000 kPa	1067
372.4 K, 70000 kPa	1071
372.4 K, 80000 kPa	1074
372.4 K, 90000 kPa	1078
372.4 K, 100000 kPa	1081
372.4 K, 110000 kPa	1085
372.4 K, 120000 kPa	1088
372.4 K, 130000 kPa	1092
372.4 K, 140000 kPa	1095
372.4 K, 150000 kPa	1099
372.4 K, 160000 kPa	1102
372.4 K, 170000 kPa	1105
372.4 K, 180000 kPa	1108
372.4 K, 190000 kPa	1111
372.4 K, 200000 kPa	1115
373.15 K, 101.33 kPa	1042.6
392.3 K, 10000 kPa	1034
392.3 K, 20000 kPa	1038
392.3 K, 30000 kPa	1043
392.3 K, 40000 kPa	1047
392.3 K, 50000 kPa	1052
392.3 K, 60000 kPa	1056
392.3 K, 70000 kPa	1059
392.3 K, 80000 kPa	1063
392.3 K, 90000 kPa	1067
392.3 K, 100000 kPa	1071
392.3 K, 110000 kPa	1075
392.3 K, 120000 kPa	1078
392.3 K, 130000 kPa	1081
392.3 K, 140000 kPa	1085
392.3 K, 150000 kPa	1088
392.3 K, 160000 kPa	1092
392.3 K, 170000 kPa	1095
392.3 K, 180000 kPa	1099
392.3 K, 190000 kPa	1102
392.3 K, 200000 kPa	1105
412.3 K, 10000 kPa	1022
412.3 K, 20000 kPa	1027
412.3 K, 30000 kPa	1032
412.3 K, 40000 kPa	1036
412.3 K, 50000 kPa	1041
412.3 K, 60000 kPa	1045
412.3 K, 70000 kPa	1049
412.3 K, 80000 kPa	1053
412.3 K, 90000 kPa	1057
412.3 K, 100000 kPa	1061
412.3 K, 110000 kPa	1064
412.3 K, 120000 kPa	1068
412.3 K, 130000 kPa	1072
412.3 K, 140000 kPa	1076
412.3 K, 150000 kPa	1079
412.3 K, 160000 kPa	1082
412.3 K, 170000 kPa	1086
412.3 K, 180000 kPa	1089
412.3 K, 190000 kPa	1092
412.3 K, 200000 kPa	1096
432.2 K, 10000 kPa	1011
432.2 K, 20000 kPa	1016
432.2 K, 30000 kPa	1021
432.2 K, 40000 kPa	1026
432.2 K, 50000 kPa	1030
432.2 K, 60000 kPa	1035
432.2 K, 70000 kPa	1039
432.2 K, 80000 kPa	1043
432.2 K, 90000 kPa	1047
432.2 K, 100000 kPa	1051
432.2 K, 110000 kPa	1055
432.2 K, 120000 kPa	1059
432.2 K, 130000 kPa	1062
432.2 K, 140000 kPa	1066
432.2 K, 150000 kPa	1069
432.2 K, 160000 kPa	1073
432.2 K, 170000 kPa	1076
432.2 K, 180000 kPa	1080
432.2 K, 190000 kPa	1083
432.2 K, 200000 kPa	1087
452 K, 10000 kPa	1000
452 K, 20000 kPa	1005
452 K, 30000 kPa	1010
452 K, 40000 kPa	1015
452 K, 50000 kPa	1020
452 K, 60000 kPa	1024
452 K, 70000 kPa	1028
452 K, 80000 kPa	1032
452 K, 90000 kPa	1037
452 K, 100000 kPa	1041
452 K, 110000 kPa	1045
452 K, 120000 kPa	1048
452 K, 130000 kPa	1052
452 K, 140000 kPa	1056
452 K, 150000 kPa	1060
452 K, 160000 kPa	1063
452 K, 170000 kPa	1067
452 K, 180000 kPa	1070
452 K, 190000 kPa	1074
452 K, 200000 kPa	1077
